Experimental data as given in ChEMBL document CHEMBL1122308, “Bicyclic lactones derived from kainic acid as novel selective antagonists of neuroexcitatory amino acids” (J Med Chem, 1983).

Assays:
Assay type in all cases: functional
Rattus norvegicus [1] = species: Rattus norvegicus; assay: Percentage response to 30 uM of N-methyl-D-aspartic acid (NMDA) at 2 mM in rat striatum slices.
Rattus norvegicus [2] = species: Rattus norvegicus; assay: Percentage response to 0.1 mM of quisqualic acid at 2 mM in rat striatum slices.
Rattus norvegicus [3] = species: Rattus norvegicus; assay: Percentage response to 0.5 mM of L-Glutamic acid at 2 mM in rat striatum slices.
Rattus norvegicus [4] = species: Rattus norvegicus; assay: Percentage response to 0.1 mM of kainic acid (KA) at 2 mM in rat striatum slices.
Rattus norvegicus [5] = species: Rattus norvegicus; assay: Concentration at which the compound inhibits half of the response of kainic acid (KA)
Rattus norvegicus [6] = species: Rattus norvegicus; assay: Concentration at which the compound inhibits half of the response of N-methyl-D-aspartic acid (NMDA)
Rattus norvegicus [7] = species: Rattus norvegicus; assay: Percentage response to 30 uM of N-methyl-D-aspartic acid (NMDA) at 1.5 mM in rat striatum slices.
Rattus norvegicus [8] = species: Rattus norvegicus; assay: Percentage response to 0.5 mM of L-Glutamic acid at 1.5 mM in rat striatum slices.
Rattus norvegicus [9] = species: Rattus norvegicus; assay: Percentage response to 0.1 mM of quisqualic acid at 1 mM in rat striatum slices.
Rattus norvegicus [10] = species: Rattus norvegicus; assay: Percentage response to 0.1 mM of kainic acid (KA) at 1 mM in rat striatum slices.
Rattus norvegicus [11] = species: Rattus norvegicus; assay: Percentage response to 0.1 mM of quisqualic acid at 3 mM in rat striatum slices.
Rattus norvegicus [12] = species: Rattus norvegicus; assay: Percentage response to 30 uM of N-methyl-D-aspartic acid (NMDA) at 3 mM in rat striatum slices.
Rattus norvegicus [13] = species: Rattus norvegicus; assay: Percentage response to 0.5 mM of L-Glutamic acid at 3 mM in rat striatum slices.
Rattus norvegicus [14] = species: Rattus norvegicus; assay: Percentage response to 0.1 mM of kainic acid (KA) at 3 mM in rat striatum slices.
Rattus norvegicus [15] = species: Rattus norvegicus; assay: Percentage response to 30 uM of N-methyl-D-aspartic acid (NMDA) at 1 mM in rat striatum slices.
Rattus norvegicus [16] = species: Rattus norvegicus; assay: Percentage response to 0.5 mM of L-Glutamic acid at 1 mM in rat striatum slices.

Compound | Response (Rattus norvegicus [1]) [%] | Response (Rattus norvegicus [2]) [%] | Response (Rattus norvegicus [3]) [%] | Response (Rattus norvegicus [4]) [%] | IC50 (Rattus norvegicus [5]) [µM] | Response (Rattus norvegicus [9]) [%] | Response (Rattus norvegicus [10]) [%] | also measured
CC1(CI)OC(=O)C[C@@H]2[C@H](C(=O)O)NC[C@@H]21 (stereo partly drawn) | <49 | 111 | 79 | <8 | – | – | – | –
CC1(C)OC(=O)C[C@@H]2[C@@H](C(=O)O)NC[C@@H]21 | <16 | 94 | 96 | 66 | 3000 | – | – | IC50 (Rattus norvegicus [6]): 300 µM
CC1(CSc2ccccc2)OC(=O)C[C@@H]2[C@@H](C(=O)O)NC[C@@H]21 (stereo partly drawn) | – | – | – | – | – | 76 | <16 | Response (Rattus norvegicus [7]): <10%; Response (Rattus norvegicus [8]): 84%
CC1(CO)OC(=O)C[C@@H]2[C@@H](C(=O)O)NC[C@@H]21 (stereo partly drawn) | – | – | – | – | 3000 | – | – | Response (Rattus norvegicus [11]): 94%; Response (Rattus norvegicus [12]): <36%; Response (Rattus norvegicus [13]): 106%; IC50 (Rattus norvegicus [6]): 2000 µM; Response (Rattus norvegicus [14]): <50%
CC1(CI)OC(=O)C[C@@H]2[C@@H](C(=O)O)NC[C@@H]21 (stereo partly drawn) | <42 | 96 | 74 | <15 | – | – | – | –
CC1(CSc2ccccc2)OC(=O)C[C@@H]2[C@H](C(=O)O)NC[C@@H]21 (stereo partly drawn) | – | – | – | – | 200 | <53 | <0 | Response (Rattus norvegicus [15]): <36%; Response (Rattus norvegicus [16]): 87%
NC(CCCP(=O)(O)O)C(=O)O (stereo not drawn) | – | – | – | – | – | <91 | 118 | Response (Rattus norvegicus [15]): <0%; Response (Rattus norvegicus [16]): <64%
